This note sets out measurements from patent publication US20260042762A1 (Kymera Therapeutics, Inc., priority 2018, published 2026).

Structures can show the parent of a compound that is named as a salt.

The experiment concerns the target T1, MerTK (Homo sapiens, UniProt Q12866).
T1 construct: endogenous in cells; host or cells: Jurkat cells
T1 sequence (Q12866 21-999): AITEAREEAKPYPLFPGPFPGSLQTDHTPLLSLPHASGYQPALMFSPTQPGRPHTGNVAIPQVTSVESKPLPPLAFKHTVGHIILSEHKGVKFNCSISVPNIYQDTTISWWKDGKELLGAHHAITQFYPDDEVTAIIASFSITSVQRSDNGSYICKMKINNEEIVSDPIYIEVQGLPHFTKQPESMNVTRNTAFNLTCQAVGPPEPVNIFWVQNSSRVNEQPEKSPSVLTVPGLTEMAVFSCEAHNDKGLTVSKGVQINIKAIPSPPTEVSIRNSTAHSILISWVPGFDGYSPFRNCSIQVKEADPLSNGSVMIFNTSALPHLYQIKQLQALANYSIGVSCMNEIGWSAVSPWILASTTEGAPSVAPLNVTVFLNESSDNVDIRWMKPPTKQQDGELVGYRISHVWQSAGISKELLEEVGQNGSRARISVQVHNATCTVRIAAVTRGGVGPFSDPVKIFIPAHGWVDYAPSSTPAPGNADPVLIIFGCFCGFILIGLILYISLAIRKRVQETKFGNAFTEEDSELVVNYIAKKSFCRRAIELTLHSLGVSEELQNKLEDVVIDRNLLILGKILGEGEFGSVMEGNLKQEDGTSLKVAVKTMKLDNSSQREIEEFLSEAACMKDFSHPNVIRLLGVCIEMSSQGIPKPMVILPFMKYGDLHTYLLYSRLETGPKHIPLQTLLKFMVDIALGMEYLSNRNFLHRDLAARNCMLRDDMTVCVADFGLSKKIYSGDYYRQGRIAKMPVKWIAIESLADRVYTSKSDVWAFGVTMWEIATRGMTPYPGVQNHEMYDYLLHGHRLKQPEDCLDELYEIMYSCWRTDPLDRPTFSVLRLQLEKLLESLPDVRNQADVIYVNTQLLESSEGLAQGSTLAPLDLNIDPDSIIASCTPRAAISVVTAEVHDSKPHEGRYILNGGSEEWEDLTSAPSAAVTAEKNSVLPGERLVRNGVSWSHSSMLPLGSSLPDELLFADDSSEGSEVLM
The experiment is described as follows: MerTk degradation in Jurkat cells (Western blot). It counts as cell-based. Conditions: Jurkat, 4 h, 0.001-1 μM, 4 hour-incubation at 37° C., read-out: Jurkat Max % MerTK Degradation. The method, boiled down: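 Jurkat cells treated 4 h at 37 °C with compound at 0.001-1 μM final. RIPA lysates quantified by BCA, then MerTK probed by Western blot against actin loading control with IR-dye secondaries and Odyssey imaging.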
A general note: A western blot detects proteins with antibodies after separation by electrophoresis.
`CCCCNc1ncc2c(-c3ccc(CNCCCC(=O)N(C)CCOCCCc4ccc5c(c4)n(C)c(=O)n5[C@H]4CCC(=O)NC4=O)cc3)cn([C@H]3CC[C@H](O)CC3)c2n1` [I-67, 4-[([4-[2-(butylamino)-7-[trans-4-hydroxycyclohexy1]-7H-pyrrolo[2,3-d]pyrimidin-5-yl]phenyl]methyl)amino]-N-(2-[3-[1-(2,6-dioxopiperidin-3-y1)-3-methyl-2-oxo-2,3-dihydro-1H-1,3-benzodiazol-5-yl]propoxy]ethyl)-N-methylbutanamide; formic acid]: the Dmax is above 50%. The same measure for `Cc1ncsc1-c1ccc(CNC(=O)[C@@H]2C[C@@H](O)CN2C(=O)[C@@H](NCCNCCCCCN2CCN(Cc3ccc(-c4cn([C@H]5CC[C@H](O)CC5)c5nc(NCCC(F)(F)F)ncc45)cc3)CC2)C(C)(C)C)cc1` [I-68, (2S,4R)-1-[(2S)-3,3-dimethyl-2-([2-[(5-[4-[(4-[7-[trans-4-hydroxycyclohexyl]-2-[(3,3,3-trifluoropropyl)amino]-7H-pyrrolo[2,3-d]pyrimidin-5yl]phenyl)methyl]piperazin-1-yl]pentyl)amino]ethyl]amino)butanoyl]-4-hydroxy-N-[[4-(4-methyl-1,3-thiazol-5-yl)phenyl]methyl]pyrrolidine-2-carboxamide dihydrochloride]: below 20%; for `CCCCNc1ncc2c(-c3ccc(CN4CCN(CCCOCCCc5ccc6c(c5)n(C)c(=O)n6[C@H]5CCC(=O)NC5=O)CC4)cc3)cn([C@H]3CC[C@H](O)CC3)c2n1` [I-69, 3-[5-(3-[3-[4-([4-[2-(butylamino)-7-[trans-4-hydroxycyclohexy1]-7H-pyrrolo[2,3-d]pyrimidin-5-yl]phenyl]methyl)piperazin-1-yl]propoxy]propyl)-3-methyl-2-oxo-2,3-dihydro-1H-1,3-benzodiazol-1-yl]piperidine-2,6-dione; bis(formic acid)]: above 50%. As to `Cn1c(=O)n([C@H]2CCC(=O)NC2=O)c2ccc(CCCOCCCOCCN3CCN(Cc4ccc(-c5cn([C@H]6CC[C@H](O)CC6)c6nc(NCCC7CC7)ncc56)cc4)CC3)cc21` [I-70, 3-(5-[3-[3-(2-[4-[(4-[2-[(2-cyclopropylethyl)amino]-7-[trans-4-hydroxycyclohexyl]-7H-pyrrolo[2,3-d]pyrimidin-5-yl]phenyl)methyl]piperazin-1-yl]ethoxy)propoxy]propy1]-3-methyl-2-oxo-2,3-dihydro-1H-1,3-benzodiazol-1-y1)piperidine-2,6-dione], the Dmax was above 50%. As to `CCCNc1ncc2c(-c3ccc(CN4CCN(CCOCCCOCCCc5ccc6c(c5)n(C)c(=O)n6[C@H]5CCC(=O)NC5=O)CC4)cc3)cn([C@H]3CC[C@H](O)CC3)c2n1` [I-71, 3-[3-methyl-2-oxo-5-[3-(3-[2-[4-([4-[2-(propylamino)-7-[trans-4-hydroxycyclohexyl]-7H-pyrrolo[2,3-d]pyrimidin-5-yl]phenyl]methyl)piperazin-1-yl]ethoxy]propoxy)propy1]-2,3-dihydro-1H-1,3-benzodiazol-1-yl]piperidine-2,6-dione], the Dmax was above 50%. `Cn1c(=O)n([C@H]2CCC(=O)NC2=O)c2ccc(CCCOCCCOCCN3CCN(Cc4ccc(-c5cn([C@H]6CC[C@H](O)CC6)c6nc(NCC7CC7)ncc56)cc4)CC3)cc21` [I-72, 3-(5-[3-[3-(2-[4-[(4-[2-[(cyclopropylmethyl)amino]-7-[trans-4-hydroxycyclohexy1]-7H-pyrrolo[2,3-d]pyrimidin-5-yl]phenyl)methyl]piperazin-1-yl]ethoxy)propoxy]propy1]-3-methyl-2-oxo-2,3-dihydro-1H-1,3-benzodiazol-1-yl)piperidine-2,6-dione; formic acid]: the Dmax was above 50%.

Take `Cn1c(=O)n([C@H]2CCC(=O)NC2=O)c2ccc(CCCOCCCN3CCN(Cc4ccc(-c5cn([C@H]6CC[C@H](O)CC6)c6nc(NCCC(F)(F)F)ncc56)cc4)CC3)cc21` [I-73, 3-[3-methyl-2-oxo-5-[3-(3-[4-[(4-[7-[trans-4-hydroxycyclohexyl]-2-[(3,3,3-trifluoropropyl)amino]-7H-pyrrolo[2,3-d]pyrimidin-5-yl]phenyl)methyl]piperazin-1-yl]propoxy)propyl]-2,3-dihydro-1H-1,3-benzodiazol-1-yl]piperidine-2,6-dione; formic acid]: the Dmax is above 50%. As for `CCCCNc1ncc2c(-c3ccc(CN4CCN(CCCOCCCc5ccc6c(c5)n(C)c(=O)n6[C@H]5CCC(=O)NC5=O)CC4)cc3)cn(C3CCCCC3)c2n1` [I-74, 3-[5-(3-[3-[4-([4-[2-(butylamino)-7-cyclohexyl-7H-pyrrolo[2,3-d]pyrimidin-5-yl]phenyl]methyl)piperazin-1-yl]propoxy]propyl)-3-methyl-2-oxo-2,3-dihydro-1H-1,3-benzodiazol-1-yl]piperidine-2,6-dione], the figure is above 50%; as for `CCCCNc1ncc2c(-c3ccc(C(C)N4CCN(CCCOCCCc5ccc6c(c5)n(C)c(=O)n6C5CCC(=O)NC5=O)CC4)cc3)cn([C@H]3CC[C@H](O)CC3)c2n1` (stereo partly drawn) [I-75, 3-[5-(3-[3-[4-(1-[4-[2-(butylamino)-7-[trans-4-hydroxycyclohexy1]-7H-pyrrolo[2,3-d]pyrimidin-5-yl]phenyl]ethyl)piperazin-1-yl]propoxy]propyl)-3-methyl-2-oxo-2,3-dihydro-1H-1,3-benzodiazol-1-yl]piperidine-2,6-dione; formic acid], above 50%.

For `CCCCNc1ncc2c(-c3ccc(CN4CCN(CCOCCOCCOCCOCCCc5ccc6c(c5)n(C)c(=O)n6[C@H]5CCC(=O)NC5=O)CC4)nn3)cn([C@H]3CC[C@H](O)CC3)c2n1` [I-76, 3-(5-[1-[4-([6-[2-(butylamino)-7-[trans-4-hydroxycyclohexyl]-7H-pyrrolo[2,3-d]pyrimidin-5-y1]pyridazin-3-y1]methyl)piperazin-1-y1]-3,6,9,12-tetraoxapentadecan-15-y1]-3-methyl-2-oxo-2,3-dihydro-1H-1,3-benzodiazol-1-y1)piperidine-2,6-dione; formic acid], the Dmax was above 50%. As for `Cn1c(=O)n([C@H]2CCC(=O)NC2=O)c2ccc(CCCOCCCOCCN3CCN(Cc4ccc(-c5cn([C@H]6CC[C@H](O)CC6)c6nc(NCCC(F)(F)F)ncc56)cc4)CC3)cc21` [I-78, 3-(3-methyl-2-oxo-5-[3-[3-(2-[4-[(4-[7-[trans-4-hydroxycyclohexyl]-2-[(3,3,3-trifluoropropyl)amino]-7H-pyrrolo[2,3-d]pyrimidin-5-yl]phenyl)methyl]piperazin-1-yl]ethoxy)propoxy]propy1]-2,3-dihydro-1H-1,3-benzodiazol-1-yl)piperidine-2,6-dione; formic acid], the Dmax is above 50%. As for `Cn1c(=O)n([C@H]2CCC(=O)NC2=O)c2ccc(CCCOCCCCN3CCN(Cc4ccc(-c5cn([C@H]6CC[C@H](O)CC6)c6nc(NCCC(F)(F)F)ncc56)cc4)CC3)cc21` [I-79, 3-[3-methyl-2-oxo-5-[3-(4-[4-[(4-[7-[trans-4-hydroxycyclohexyl]-2-[(3,3,3-trifluoropropyl)amino]-7H-pyrrolo[2,3-d]pyrimidin-5-yl]phenyl)methyl]piperazin-1-yl]butoxy)propyl]-2,3-dihydro-1H-1,3-benzodiazol-1-yl]piperidine-2,6-dione; formic acid], the Dmax is above 50%.

Regarding `CC(c1ccc(-c2cn([C@H]3CC[C@H](O)CC3)c3nc(NCCC(F)(F)F)ncc23)cc1)N1CCN(CCCOCCCc2ccc3c(c2)n(C)c(=O)n3C2CCC(=O)NC2=O)CC1` (stereo partly drawn) [I-80, 3-[3-methyl-2-oxo-5-[3-(3-[4-[1-(4-[7-[trans-4-hydroxycyclohexyl]-2-[(3,3,3-trifluoropropyl)amino]-7H-pyrrolo[2,3-d]pyrimidin-5-yl]phenyl)ethyl]piperazin-1-yl]propoxy)propyl]-2,3-dihydro-1H-1,3-benzodiazol-1-yl]piperidine-2,6-dione], the Dmax is above 50%. As for `CC(c1ccc(-c2cn([C@H]3CC[C@H](O)CC3)c3nc(NCCC(F)(F)F)ncc23)cc1)N1CCN(CCCCOCCCc2ccc3c(c2)n(C)c(=O)n3C2CCC(=O)NC2=O)CC1` (stereo partly drawn) [I-81, 3-[3-methyl-2-oxo-5-[3-(4-[4-[1-(4-[7-[trans-4-hydroxycyclohexyl]-2-[(3,3,3-trifluoropropyl)amino]-7H-pyrrolo[2,3-d]pyrimidin-5-yl]phenyl)ethyl]piperazin-1-y1]butoxy)propyl]-2,3-dihydro-1H-1,3-benzodiazol-1-yl]piperidine-2,6-dione], the figure is above 50%.
